Test results published in patent US20250171431A1, “HETEROCYCLIC INHIBITORS OF IGF-1R FOR TREATMENT OF DISEASE” (HORIZON THERAPEUTICS IRELAND DAC, priority 2023, published 2025).

Target: IGF-1R (Homo sapiens (Human), UniProt P08069)
Test: Example B-1: IGF-1R Assay (PC3 cells, IGF1 stimulation, AlphaLISA)
Type: cell-based
Settings: 200 ng/mL IGF1 stimulation, read-out: Biological Activity against IGF-1R IC50
Method in brief: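 Readout is AlphaLISA signal from lysed PC3 cells, expressed as % inhibition versus vehicle and EC80 controls and banded by IC50. Before lysis, the cells were starved of serum for 2 h, exposed to 3× serially diluted compound for 2 h, and stimulated for 30 min with 200 ng/mL IGF1 (final).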

IGF-1R, sequence (P08069 31-1367): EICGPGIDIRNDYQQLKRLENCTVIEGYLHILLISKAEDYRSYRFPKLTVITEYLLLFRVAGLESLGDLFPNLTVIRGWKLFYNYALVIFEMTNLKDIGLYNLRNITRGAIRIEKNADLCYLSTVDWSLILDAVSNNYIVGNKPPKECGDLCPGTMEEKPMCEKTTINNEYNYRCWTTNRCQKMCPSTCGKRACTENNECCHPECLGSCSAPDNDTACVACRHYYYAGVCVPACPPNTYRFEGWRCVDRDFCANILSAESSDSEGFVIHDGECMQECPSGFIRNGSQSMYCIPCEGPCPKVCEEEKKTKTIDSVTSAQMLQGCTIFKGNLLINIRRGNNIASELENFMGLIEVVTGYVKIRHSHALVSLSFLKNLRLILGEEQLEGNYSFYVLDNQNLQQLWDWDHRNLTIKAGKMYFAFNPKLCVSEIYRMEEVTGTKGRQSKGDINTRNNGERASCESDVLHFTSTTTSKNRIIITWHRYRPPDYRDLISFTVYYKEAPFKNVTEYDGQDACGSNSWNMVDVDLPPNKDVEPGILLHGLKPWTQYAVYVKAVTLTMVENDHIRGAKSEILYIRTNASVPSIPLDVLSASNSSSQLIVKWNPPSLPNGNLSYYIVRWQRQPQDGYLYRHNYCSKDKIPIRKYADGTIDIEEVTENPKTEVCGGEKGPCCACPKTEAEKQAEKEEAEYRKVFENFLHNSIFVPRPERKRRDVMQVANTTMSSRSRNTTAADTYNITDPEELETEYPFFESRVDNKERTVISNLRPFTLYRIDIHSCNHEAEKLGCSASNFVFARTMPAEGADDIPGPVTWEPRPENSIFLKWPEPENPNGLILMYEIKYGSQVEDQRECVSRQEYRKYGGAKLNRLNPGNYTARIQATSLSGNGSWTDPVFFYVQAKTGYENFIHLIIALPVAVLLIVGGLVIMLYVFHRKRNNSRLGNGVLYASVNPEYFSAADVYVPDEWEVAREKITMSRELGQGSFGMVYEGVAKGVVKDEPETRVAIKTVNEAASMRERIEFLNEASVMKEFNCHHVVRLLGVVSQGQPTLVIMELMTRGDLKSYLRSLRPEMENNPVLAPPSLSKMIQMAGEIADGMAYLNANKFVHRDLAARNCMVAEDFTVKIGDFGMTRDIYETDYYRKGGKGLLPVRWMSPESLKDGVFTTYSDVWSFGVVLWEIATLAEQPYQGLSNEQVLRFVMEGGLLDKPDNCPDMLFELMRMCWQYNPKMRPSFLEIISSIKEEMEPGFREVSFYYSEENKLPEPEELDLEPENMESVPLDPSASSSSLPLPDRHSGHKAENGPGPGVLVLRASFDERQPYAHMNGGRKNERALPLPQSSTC

Row | Structure (SMILES) | IC50
1 | COc1cc(Nc2ncc(F)c(Nc3cnc4ccc(Cl)cc4c3)n2)ccc1O[C@H]1C[C@@H](N(C)C)C1 [Compound 210, N4-(6-chloroquinolin-3-yl)-N2-(4-((1s,3s)-3-(dimethylamino)cyclobutoxy)-3-methoxyphenyl)-5-fluoropyrimidine-2,4-diamine] | ≤ 500 nM
2 | COc1cc(Nc2nccc(Nc3cc4cccc(F)c4[nH]c3=O)n2)cnc1N1CCNC(C(F)F)C1 (stereo not shown) [Compound 233, 3-(2-{6-[3-(difluoromethyl)-1-piperazinyl]-5-methoxy-3-pyridylamino}-4-pyrimidinylamino)-8-fluoro-1,2-dihydro-2-quinolinone] | ≤ 500 nM
3 | COc1cc(Nc2nccc(Nc3cc4cccc(F)c4[nH]c3=O)n2)cnc1N1CCN(CC#N)CC1 [Compound 236, (4-{5-[4-(8-fluoro-2-oxo-1,2-dihydro-3-quinolylamino)-2-pyrimidinylamino]-3-methoxy-2-pyridyl}-1-piperazinyl)acetonitrile] | ≤ 500 nM
4 | COc1cc(Nc2nccc(Nc3cc4cccc(F)c4[nH]c3=O)n2)cnc1N1CCN(C2COC2)CC1 [Compound 237, 8-fluoro-3-(2-{5-methoxy-6-[4-(3-oxetanyl)-1-piperazinyl]-3-pyridylamino}-4-pyrimidinylamino)-1,2-dihydro-2-quinolinone] | ≤ 500 nM
5 | COc1cc(Nc2nccc(Nc3cc4cccc(F)c4[nH]c3=O)n2)cnc1N1CCNC(C(C)(C)O)C1 (stereo not shown) [Compound 238, 8-fluoro-3-(2-{6-[3-(1-hydroxy-1-methylethyl)-1-piperazinyl]-5-methoxy-3-pyridylamino}-4-pyrimidinylamino)-1,2-dihydro-2-quinolinone] | ≤ 500 nM
6 | COc1cc(Nc2ncc(F)c(Nc3cc4cccc(F)c4[nH]c3=O)n2)ccc1O[C@H]1C[C@@H](N(C)C)C1 [Compound 242, 8-fluoro-3-(5-fluoro-2-{3-methoxy-4-[(1s,3s)-3-(dimethylamino)cyclobutoxy]phenyl-amino}-4-pyrimidinylamino)-1,2-dihydro-2-quinolinone] | 2000 to 10000 nM
7 | CN(C)CC1Cc2ccc(Nc3nccc(Nc4cc5cccc(F)c5[nH]c4=O)n3)cc2O1 (stereo not shown) [Compound 243, 3-(2-{2-[(dimethylamino)methyl]-2,3-dihydro-1-benzofuran-6-ylamino}-4-pyrimidinylamino)-8-fluoro-1,2-dihydro-2-quinolinone] | ≤ 500 nM
8 | COc1cc(Nc2nccc(Nc3cc4ccc(F)cc4[nH]c3=O)n2)cnc1O[C@H]1C[C@@H](N(C)C)C1 [Compound 244, 7-fluoro-3-(2-{5-methoxy-6-[(1s,3s)-3-(dimethylamino)cyclobutoxy]-3-pyridylamino}-4-pyrimidinylamino)-1,2-dihydro-2-quinolinone] | ≤ 500 nM
9 | CN(C)CC1COc2cc(Nc3nccc(Nc4cc5cc(Cl)ccc5[nH]c4=O)n3)ccc2O1 (stereo not shown) [Compound 245, 6-chloro-3-(2-{2-[(dimethylamino)methyl]-2,3-dihydro-1,4-benzodioxin-6-ylamino}-4-pyrimidinylamino)-1,2-dihydro-2-quinolinone] | ≤ 500 nM
10 | COc1cc(Nc2nccc(Nc3cc4cccc(F)c4[nH]c3=O)n2)cnc1O[C@H]1C[C@@H](N(C)C)C1 [Compound 246, 8-fluoro-3-(2-{5-methoxy-6-[(1s,3s)-3-(dimethylamino)cyclobutoxy]-3-pyridylamino}-4-pyrimidinylamino)-1,2-dihydro-2-quinolinone] | ≤ 500 nM
11 | CN(C)[C@H]1C[C@H](Oc2ccc(Nc3nccc(Nc4cc5ccccc5[nH]c4=O)n3)cc2)C1 [Compound 248, 3-(2-{p-[(1r,3r)-3-(dimethylamino)cyclobutoxy]phenylamino}-4-pyrimidinyl-amino)-2(1H)-quinolinone] | ≤ 500 nM
12 | COc1cc(Nc2nccc(Nc3cc4ccccc4[nH]c3=O)n2)ccc1O[C@H]1C[C@H](N(C)C)C1 [Compound 249, 3-(2-{3-methoxy-4-[(1r,3r)-3-(dimethylamino)cyclobutoxy]phenyl-amino}-4-pyrimidinylamino)-2(1H)-quinolinone] | ≤ 500 nM
13 | COc1cc(Nc2nccc(Nc3cc4ccccc4[nH]c3=O)n2)ccc1OCCCN1CCCCC1 [Compound 250, 3-{2-[3-methoxy-4-(3-piperidinopropoxy)phenylamino]-4-pyrimidinylamino}-2(1H)-quinolinone] | ≤ 500 nM
14 | O=c1[nH]c2ccccc2cc1Nc1ccnc(Nc2ccc(OCCCN3CCOCC3)cc2)n1 [Compound 251, 3-{2-[p-(3-morpholinopropoxy)phenylamino]-4-pyrimidinylamino}-2(1H)-quinolinone] | ≤ 500 nM
15 | COc1cc(Nc2nc(N)cc(Nc3cnc4cc(F)c(F)cc4c3)n2)cnc1O[C@H]1C[C@@H](N(C)C)C1 [Compound 252, 6-amino-4-(6,7-difluoro-3-quinolylamino)-2-{5-methoxy-6-[(1s,3s)-3-(dimethylamino)cyclobutoxy]-3-pyridylamino}pyrimidine] | 2000 to 10000 nM
16 | COc1cc(Nc2nccc(Nc3cnc4cc(F)c(F)cc4c3)n2)cnc1O[C@@H]1C[C@H](N(C)C)C1(C)C [Compound 254, 2-{6-[(1R,3S)-3-(dimethylamino)-2,2-dimethylcyclobutoxy]-5-methoxy-3-pyridylamino}-4-(6,7-difluoro-3-quinolylamino)pyrimidine] | ≤ 500 nM
17 | COc1cc(Nc2ncc(F)c(Nc3cc4ccccc4nc3C(N)=O)n2)cnc1O[C@H]1C[C@@H](N(C)C)C1 [Compound 255, 3-(5-fluoro-2-{5-methoxy-6-[(1s,3s)-3-(dimethylamino)cyclobutoxy]-3-pyridylamino}-4-pyrimidinylamino)-2-quinolinecarboxamide] | ≤ 500 nM
18 | COc1cc(Nc2nccc(Nc3cc4c(nc3C(N)=O)CCCC4)n2)ccc1O[C@H]1C[C@@H](N(C)C)C1 [Compound 256, 3-(2-{3-methoxy-4-[(1s,3s)-3-(dimethylamino)cyclobutoxy]phenylamino}-4-pyrimidinylamino)-5,6,7,8-tetrahydro-2-quinolinecarboxamide] | ≤ 500 nM

Further lines, results first:

Row | IC50 | Structure (SMILES)
19 | ≤ 500 nM | COc1cc(N2CCN(C3COC3)CC2)ncc1Nc1nccc(Nc2cc3cccc(F)c3[nH]c2=O)n1 [Compound 225, 8-fluoro-3-(2-{4-methoxy-6-[4-(3-oxetanyl)-1-piperazinyl]-3-pyridylamino}-4-pyrimidinylamino)-1,2-dihydro-2-quinolinone]
20 | ≤ 500 nM | COc1cc(N2CCN(CC#N)CC2)ncc1Nc1nccc(Nc2cc3cccc(F)c3[nH]c2=O)n1 [Compound 226, (4-{5-[4-(8-fluoro-2-oxo-1,2-dihydro-3-quinolylamino)-2-pyrimidinylamino]-4-methoxy-2-pyridyl}-1-piperazinyl)acetonitrile]
21 | ≤ 500 nM | COc1nc(N2CCC(O)(C(F)(F)F)CC2)ccc1Nc1nccc(Nc2cc3cccc(F)c3[nH]c2=O)n1 [Compound 227, 8-fluoro-3-(2-{6-[4-hydroxy-4-(trifluoromethyl)-1-piperidyl]-2-methoxy-3-pyridylamino}-4-pyrimidinylamino)-1,2-dihydro-2-quinolinone]
22 | ≤ 500 nM | COc1cc(Nc2nccc(Nc3cc4cccc(F)c4[nH]c3=O)n2)cnc1N1CCC(O)(C(F)(F)F)CC1 [Compound 228, 8-fluoro-3-(2-{6-[4-hydroxy-4-(trifluoromethyl)-1-piperidyl]-5-methoxy-3-pyridylamino}-4-pyrimidinylamino)-1,2-dihydro-2-quinolinone]
23 | ≤ 500 nM | COc1cc(Nc2nccc(Nc3cc4cccc(F)c4[nH]c3=O)n2)cnc1N1CCN(C)C(C)(C)C1 [Compound 229, 3-{2-[6-(3,3-dimethyl-4-methyl-1-piperazinyl)-5-methoxy-3-pyridylamino]-4-pyrimidinylamino}-8-fluoro-1,2-dihydro-2-quinolinone]
24 | ≤ 500 nM | COc1cc(N2CCC(C)(O)CC2)ncc1Nc1nccc(Nc2cc3cccc(F)c3[nH]c2=O)n1 [Compound 230, 8-fluoro-3-{2-[6-(4-hydroxy-4-methyl-1-piperidyl)-4-methoxy-3-pyridylamino]-4-pyrimidinylamino}-1,2-dihydro-2-quinolinone]
25 | ≤ 500 nM | COc1nc(N2CCC(C)(O)CC2)ccc1Nc1nccc(Nc2cc3cccc(F)c3[nH]c2=O)n1 [Compound 231, 8-fluoro-3-{2-[6-(4-hydroxy-4-methyl-1-piperidyl)-2-methoxy-3-pyridylamino]-4-pyrimidinylamino}-1,2-dihydro-2-quinolinone]
26 | ≤ 500 nM | COc1cc(Nc2nccc(Nc3cc4cccc(F)c4[nH]c3=O)n2)cnc1N1CCN(CC(F)(F)F)CC1 [Compound 232, 8-fluoro-3-(2-{5-methoxy-6-[4-(2,2,2-trifluoroethyl)-1-piperazinyl]-3-pyridylamino}-4-pyrimidinylamino)-1,2-dihydro-2-quinolinone]
27 | ≤ 500 nM | COc1cc(Nc2nccc(Nc3cc4cccc(F)c4[nH]c3=O)n2)cnc1N1CC2(COC2)C1 [Compound 234, 8-fluoro-3-(2-{5-methoxy-6-(2-oxa-6-aza-6-spiro[3.3]heptyl)-3-pyridylamino}-4-pyrimidinylamino)-1,2-dihydro-2-quinolinone]
28 | ≤ 500 nM | COc1cc(Nc2nccc(Nc3cc4cccc(F)c4[nH]c3=O)n2)cnc1N1CCNCC1 [Compound 235, 8-fluoro-3-{2-[5-methoxy-6-(1-piperazinyl)-3-pyridylamino]-4-pyrimidinylamino}-1,2-dihydro-2-quinolinone]
29 | ≤ 500 nM | COc1cc(Nc2nccc(Nc3cc4cccc(F)c4[nH]c3=O)n2)cnc1N1CCNC(C(F)(F)F)C1 (stereo not shown) [Compound 239, 8-fluoro-3-(2-{5-methoxy-6-[3-(trifluoromethyl)-1-piperazinyl]-3-pyridylamino}-4-pyrimidinylamino)-1,2-dihydro-2-quinolinone]
30 | > 10000 nM | COc1cc(Nc2nccc(Nc3cc4cccc(F)c4[nH]c3=O)n2)cnc1N1CCS(=N)(=O)CC1 [Compound 240, 4-{5-[4-(8-fluoro-2-oxo-1,2-dihydro-3-quinolylamino)-2-pyrimidinylamino]-3-methoxy-2-pyridyl}-1-imino-1λ^6,4-thiazinan-1-one]
31 | ≤ 500 nM | COc1cc(Nc2nccc(Nc3cc4cccc(F)c4[nH]c3=O)n2)cnc1N1CCOCC1 [Compound 241, 8-fluoro-3-[2-(5-methoxy-6-morpholino-3-pyridylamino)-4-pyrimidinylamino]-1,2-dihydro-2-quinolinone]
